Tests used:
[1] = test system: normal human control plasma; experiment: activated partial thromboplastin time (aPTT) clotting assay
Description: The effect of the nanocomplexes on a physiologic coagulation pathway was tested using a standard activated partial thromboplastin time (aPTT) clotting assay, which is also used to monitor heparin levels of patients. This assay measures the amount of time needed for a plasma sample to form a clot in vitro when the contact pathway of coagulation is triggered by addition of an exogenous aPTT reagent. For the assay, varying concentrations of nanocomplexes or free heparin were added to 50 μl of APTT reagent (Thermo Scientific) at 37° C. for 3 minutes. Subsequently, 50 μl of 25 mM CaCl2 (Sigma) pre-incubated at 37° C. were added to samples and clotting was monitored via absorbance at 605 nm with a SpectraMAX Plus spectrophotometer ([…]).

mice = experiment: Tail bleeding time after tail transection; assay type: in vivo; details: 200 U/kg intravenously
Description: To assess the effect of nanocomplex administration on bleeding tail transection on mice was performed five minutes after they were treated intravenously with nanocomplexes. Specifically, mice (n=5-7 per condition) were anesthetized with isofluorane gas and administered nanocomplexes (200 U/kg, n=5), heparin (200 U/kg, n=7), or PBS control (n=5). After 5 minutes, 2 mm of distal mouse tail was removed by scalpel. Bleeding time was determined by lightly dabbing the tail with kimwipe tissues (Kimtech) until bleeding fully ceased for at least 1 minute. All experimental protocols involving animals were approved by the MIT Committee on Animal Care.

[2] = test system: thromboplastin-induced model of pulmonary thromboembolism; experiment: thromboplastin-induced model of pulmonary thromboembolism; assay type: in vivo; details: mice
Description: To evaluate the ability of nanocomplexes to prevent thrombosis in vivo, a thromboplastin-induced model of pulmonary thromboembolism was utilized. […] For the pulmonary embolism assay, bovine fibrinogen (Sigma) was reacted with near-infrared fluorochromes (Vivotag-750-NHS, Perkin-Elmer) at a 2:1 fluorophore:protein molar ratio in PBS for 1 hour and purified by column centrifugation (100 kDa cutoff, Millipore) to remove unreacted fluorophores. Ampules of thromboplastin from rabbit brain (Sigma, #44213) were reconstituted with 2 mL of PBS each.
To ascertain the initial dosing ranges for the nanocomplexes, mice were dosed with thromboplastin and escalating doses of free heparin (40 U/kg, 100 U/kg and 200 U/kg heparin). Deposition of VT750-fibrin in the lungs of the mice was quantified using ex vivo infrared imaging. […] Accordingly, the dose of nanocomplexes corresponding to heparin doses of 200 U/kg was chosen for subsequent experiments.
Mice (n=5 per condition) were anesthetized with isofluorane gas and co-administered nanocomplexes (200 U/kg), free heparin (200 U/kg), or PBS control and 1 nmol of VT750-fibrinogen via tail vein injection. After 5 minutes, mice were injected with thromboplastin (2 uL/g). After 30 minutes, mice were euthanized with CO2 and the lungs were harvested and imaged on the LI-COR Odyssey Infrared Imaging System. Fibrin deposition was then quantified using ImageJ software. For histologic analysis, paraffin-embedded sections of lungs were prepared (Koch Institute Histology Core). Lungs were first fixed by incubating in 4% paraformaldehyde overnight. Hematoxylin and eosin […] staining of lung sections was used to visualize clots in the lungs.

[3] = test system: thrombin generation in human plasma; experiment: real-time thrombin generation assay in human plasma
Description: To further analyze the anticoagulant mechanism of the nanocomplexes, we performed real-time thrombin generation assays in human plasma. For this assay, varying concentrations of nanocomplexes or free heparin were added to 20 μL of control normal human plasma (Thermo Scientific). Real time thrombin generation was measured using the Technothrombin TGA kit (Technoclone) using the RD reagent according to manufacturer instructions. The fluorescence was monitored using a TECAN Infinite M200 Pro and thrombin generation was calculated using the corresponding Excel evaluation software provided by Technoclone.

## heparin [free heparin]
[1]; 0.4 U/mL
  aPTT clotting time: ~44 s
  aPTT clotting time relative to control: ~1.5 × of control
[1]; 0.8 U/mL
  aPTT clotting time: ~44 s
  aPTT clotting time relative to control: ~1.5 fold over control
[1]; 2 U/mL
  aPTT clotting time: ~136 s
  aPTT clotting time relative to control: ~5 fold over control
[1]; 2 U/mL, listed as heparin
  aPTT clotting time relative to control: ~5 x of control
mice
  increase of mean bleeding time over PBS control: greater than 280%
mice; tail transection after 5 minutes
  mean bleeding time: ~9.2 min
[2]; 40 U/kg, with thromboplastin
  VT750-fibrin deposition in the lungs: did not significantly reduce
[2]; 100 U/kg, with thromboplastin
  VT750-fibrin deposition in the lungs: did not significantly reduce
[2]; 200 U/kg, thromboplastin 2 uL/g
  histological analysis of lung microvessels (hematoxylin and eosin): largely patent
[2]; 200 U/kg, with thromboplastin
  reduction of VT750-fibrin deposition in the lungs: more than two-fold
[3]; 1.6 U/mL
  reduction of ETP: ~80%
[3]; increasing concentrations
  lag time (time to initial thrombin formation): prolonged in a dose-dependent manner
